Data taken from patent publication US9212361B2, “Methods and pharmaceutical compositions for the treatment of hypertension” (INSERM, priority 2013, dated 2015).

Columns and labels:
MR [1] = biological target: T1, MR (Rattus norvegicus, UniProt P22199); assay: NGAL expression in dendritic cells incubated with aldo +/- spironolactone; type: cell-based; conditions: 24 hr
T1 construct: endogenous in cells; host or cells: dendritic cells differentiated with GM-CSF from bone marrow stem cells of male SD rats
T1 sequence (P22199 1-981): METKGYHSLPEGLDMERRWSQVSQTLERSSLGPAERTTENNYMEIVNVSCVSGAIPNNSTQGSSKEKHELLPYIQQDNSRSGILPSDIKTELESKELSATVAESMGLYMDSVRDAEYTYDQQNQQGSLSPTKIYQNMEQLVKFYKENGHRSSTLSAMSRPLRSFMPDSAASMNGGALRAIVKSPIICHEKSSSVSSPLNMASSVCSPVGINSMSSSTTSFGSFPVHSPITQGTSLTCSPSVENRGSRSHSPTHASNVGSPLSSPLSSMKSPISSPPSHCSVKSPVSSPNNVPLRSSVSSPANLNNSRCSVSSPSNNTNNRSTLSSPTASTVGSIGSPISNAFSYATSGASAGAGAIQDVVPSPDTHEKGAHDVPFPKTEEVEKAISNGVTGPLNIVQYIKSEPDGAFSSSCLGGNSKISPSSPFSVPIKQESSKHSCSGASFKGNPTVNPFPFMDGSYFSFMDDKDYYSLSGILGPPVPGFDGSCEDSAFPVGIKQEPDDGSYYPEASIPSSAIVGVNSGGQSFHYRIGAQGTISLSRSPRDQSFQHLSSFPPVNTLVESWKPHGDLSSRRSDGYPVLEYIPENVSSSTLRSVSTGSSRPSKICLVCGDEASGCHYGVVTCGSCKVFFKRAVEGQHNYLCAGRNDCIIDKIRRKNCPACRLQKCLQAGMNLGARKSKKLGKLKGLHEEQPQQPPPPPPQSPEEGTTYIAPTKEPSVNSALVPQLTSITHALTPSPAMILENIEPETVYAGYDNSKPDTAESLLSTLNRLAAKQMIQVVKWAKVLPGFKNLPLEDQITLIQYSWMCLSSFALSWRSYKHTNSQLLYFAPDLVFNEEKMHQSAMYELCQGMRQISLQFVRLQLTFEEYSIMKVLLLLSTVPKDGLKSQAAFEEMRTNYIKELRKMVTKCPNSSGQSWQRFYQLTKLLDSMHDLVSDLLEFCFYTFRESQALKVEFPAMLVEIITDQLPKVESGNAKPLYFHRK
Procedure: (§1) FIG. 3. NGAL is an aldo/MR target in DCs (A) and macrophages (B). A:DCs were obtained from male SD rat bone marrow stem cells and differentiated during 6 days with GM-CSF. DCs were incubated with aldo (10 nM), spironolactone (5 μM), aldo plus spironolactone, or vehicle for 24 hr. *p<0.05 by ANOVA analysis (n=4); B: peritoneal macrophages from WT mice were stimulated or not with aldo (10 nM+/−RU28318 (MR antagonist). NGAL behaves similarly as MCP1 (monocy chemoattractant protein).
(§2) Macrophages are purified from abdominal cavity from mice, after 4 days of inflammation induced by thioglycollate injection. Dendritic cells are obtained after 7 days of incubation of bone marrow precursors cells (from mice bone marrow) with GM-CSF (granulocyte macrophage colony-stimulating factor).

MR [2] = biological target: T2, MR (Mus musculus, UniProt Q8VII8); assay: NGAL expression in peritoneal macrophages stimulated with aldo; type: cell-based; conditions: aldo 10 nM; peritoneal macrophages from WT mice
T2 construct: Macrophages are purified from abdominal cavity from mice; endogenous in cells; host or cells: thioglycollate-elicited peritoneal macrophages from WT mice
T2 sequence (Q8VII8 1-978): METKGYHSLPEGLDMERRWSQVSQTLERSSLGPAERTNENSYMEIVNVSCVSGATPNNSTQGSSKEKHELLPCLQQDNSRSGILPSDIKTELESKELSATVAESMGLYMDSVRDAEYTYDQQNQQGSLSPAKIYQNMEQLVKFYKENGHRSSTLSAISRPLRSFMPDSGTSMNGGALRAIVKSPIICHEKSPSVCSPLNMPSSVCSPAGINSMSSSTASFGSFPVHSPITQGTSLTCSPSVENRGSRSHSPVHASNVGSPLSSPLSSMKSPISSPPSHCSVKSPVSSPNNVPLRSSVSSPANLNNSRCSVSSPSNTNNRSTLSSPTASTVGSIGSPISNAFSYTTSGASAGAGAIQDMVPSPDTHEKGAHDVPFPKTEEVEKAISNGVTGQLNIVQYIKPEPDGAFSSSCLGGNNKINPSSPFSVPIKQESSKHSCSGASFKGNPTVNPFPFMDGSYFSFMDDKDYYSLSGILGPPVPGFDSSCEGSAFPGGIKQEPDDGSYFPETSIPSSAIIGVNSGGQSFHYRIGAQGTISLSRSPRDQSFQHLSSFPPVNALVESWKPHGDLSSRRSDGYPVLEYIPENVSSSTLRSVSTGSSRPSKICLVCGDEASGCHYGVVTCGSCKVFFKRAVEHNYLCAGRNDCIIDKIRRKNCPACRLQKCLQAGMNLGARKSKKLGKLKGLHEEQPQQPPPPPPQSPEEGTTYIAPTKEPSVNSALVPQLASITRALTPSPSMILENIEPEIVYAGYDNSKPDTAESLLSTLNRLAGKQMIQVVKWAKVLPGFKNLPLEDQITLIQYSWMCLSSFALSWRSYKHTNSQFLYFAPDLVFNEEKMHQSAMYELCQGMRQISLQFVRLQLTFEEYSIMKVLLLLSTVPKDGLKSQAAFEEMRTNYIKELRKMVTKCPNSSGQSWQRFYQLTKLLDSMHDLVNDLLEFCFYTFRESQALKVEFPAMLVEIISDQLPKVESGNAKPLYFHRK
Procedure: as §1, §2

Row | SMILES | NGAL expression in dendritic cells (MR [1]; aldo 10 nM) | NGAL expression in macrophages (MR [2]) | aldo-induced NGAL upregulation in dendritic cells (MR [1]; spironolactone 5 μM plus aldo 10 nM)
1 | C[C@]12CCC(=O)C=C1CC[C@@H]1[C@@H]2[C@@H](O)C[C@]2(C=O)[C@@H](C(=O)CO)CC[C@@H]12 [aldo, Aldosterone] | upregulated | aldo/MR target gene in the macrophages | 
2 | CC(=O)S[C@@H]1CC2=CC(=O)CC[C@]2(C)[C@H]2CC[C@@]3(C)[C@@H](CC[C@@]34CCC(=O)O4)[C@H]12 [spironolactone] |  |  | blocked
